Measurements as given in patent US10822586B2, “Agents and methods for treating and preventing seborrheic keratosis” (THE GENERAL HOSPITAL CORPORATION, priority 2012, dated 2020).
Entries after “also recorded” stand apart in the source; their conditions may differ. Read-outs that look alike come from different tables or passages of the source.

Tests used:
[1] = tested on: pro-apoptotic Akt targets (FoxO1/3, MDM2, p53); experiment: Western blot of pro-apoptotic Akt targets in SK cells; assay type: cell-based, human; details: 24 hrs post treatment, WB
Protocol: (§1) (FIG. 6A) SK cells were treated with the Akt inhibitor either for 24 hrs to measure levels of cleaved PARP by Western blotting or (FIG. 6B) for 48 hrs to detect TUNEL staining. (FIG. 6C) 24 hrs post treatment pro-apoptotic Akt targets were analyzed by WB.
Therefore, it was investigated if any of the prominent pro-apoptotic targets of Akt were involved in this process. A decrease of phosphorylated levels of FoxO1/3 as well as of phosphorylated MDM2 was observed, which correlated with increased p53 levels upon treatment with the Akt inhibitor […].

primary SK cells = experiment: Screening for inducers of cell death in primary SK cells (SRB assay); assay type: cell-based, human; details: for SK cell death inducer activity / viability of SK cells in the screen: 500 nM; for SK cell death inducer activity / viability of SK cells in the screen / cell death in SK cells (follow-up): 24 hrs post treatment, SRB assay
Protocol: (§2) FIG. 2A, FIG. 2B, and FIG. 2C show data relating to the screening for small molecule inducers of cell death in primary SK cells. (FIG. 2A) 20 small molecule inhibitors (500 nM) of kinases within the MAPK-Raf and PIK3/Akt pathway were used to treat primary SK cells (in 12 well plates) harboring either FGFR3 or/and PIK3CA mutations or none. Cell death was detected 24 hrs post treatment using SRB assay. (FIG. 2B) Representative images of cells after compound treatment. (FIG. 2C) Same molecules were used on normal human keratinocytes in two different concentrations.
(§3) (FIG. 4A) SK cells were treated with two different Akt inhibitors and cell death was measured 24 hrs post treatment using SRB assay. (FIG. 4B) Akt inhibitors were profiled against the human kinome and shared targets were identified. (FIG. 4C) Cell death in SK cells after PKC inhibition. (FIG. 4D) cell death was measured in SK cells 72 hrs after transfection with control RNAi or RNAi for Akt1 and/or 2.
Due to the fragility of the primary cultures, RNAi transfection in a high throughput fashion turned out to be challenging, which prompted the use of a collection of specific small molecule kinase inhibitors to determine which kinase is essential for survival of SK cells but not of normal human keratinocytes. This level of selectivity was introduced in order to specifically target dependency caused by genomic alterations (both mutations and overexpression).
As recently reported this hyperphosphorylation is due to the docking of the compound in the ATP binding site, which prevents the Akt interaction with its downstream targets^27. As shown in FIG. 5B SK cells treated with C8 indeed have a hyperphosphorylated Akt, but importantly the Akt downstream signaling was shut down (FIG. 5C).
(§4) Small molecule kinase inhibitors usually have a high degree of specificity towards kinases in general but often these inhibitory effects are shared among several kinases, although in different doses. While this is in most of the cases considered a weakness of the approach, it can also give some evidence about other possible targets involved in the process of interest. Therefore, the inventors profiled the two effective compounds for their targets (in collaboration with Dr. N. Gray, DFCI) and determined if any other kinases might be involved in the survival of SK cells. […] In addition, the inventors were able to confirm this by down-modulation of Akt family members using an RNAi approach.

Human SK explants = experiment: Topical treatment of ex vivo human SK explants; assay type: cell-based
Protocol: It is now widely accepted that growth, differentiation and death of keratinocytes in culture differs in significant aspects from that in intact skin. Therefore, in order to closely reproduce the in vivo situation for SK tumors, the inventors utilized an ex vivo explant system^16 for culturing freshly excised SK lesions for up to 7 days. SK explants were treated by topical application of 1 mM of C8 for 48 hrs and stained for activated Caspase 3 to detect cell death.

[2] = tested on: normal human keratinocytes; experiment: Cell death in normal human keratinocytes (SRB assay); assay type: cell-based; details: C8 dose-response, 24 hrs, SRB stained
Protocol: as §2
FIG. 3A, FIG. 3B, and FIG. 3C show data relating to small molecule-mediated inhibition of Akt signaling in primary SK cells. (FIG. 3A) SK and normal keratinocytes were treated with C8 for 24 hrs and SRB stained. (FIG. 3B) and (FIG. 3C). SK cells were treated with C8 for 4 hrs and subjected to Western blotting for corresponding proteins.
Due to the fragility of the primary cultures, RNAi transfection in a high throughput fashion turned out to be challenging, which prompted the use of a collection of specific small molecule kinase inhibitors to determine which kinase is essential for survival of SK cells but not of normal human keratinocytes. This level of selectivity was introduced in order to specifically target dependency caused by genomic alterations (both mutations and overexpression). […]

Akt = experiment: Western blotting of Akt signaling in SK cells; assay type: cell-based, human
Protocol: (FIG. 3A) SK and normal keratinocytes were treated with C8 for 24 hrs and SRB stained. (FIG. 3B) and (FIG. 3C). SK cells were treated with C8 for 4 hrs and subjected to Western blotting for corresponding proteins.

SK cells = experiment: Apoptosis in SK cells (cleaved PARP Western blotting, TUNEL staining); assay type: cell-based, human
Protocol: as §1
It is well-established that activation of Akt in cells is known to elicit pro-survival effects through activation/suppression of different targeted pathways.

human kinome = experiment: Profiling of Akt inhibitors against the human kinome; assay type: biochemical
Protocol: as §3, §4

[3] = SK cells treated 4 hrs, Western blotting

Cc1n[nH]c2ccc(-c3cncc(OC[C@@H](N)Cc4c[nH]c5ccccc45)c3)cc12 [C8]
p53 levels [1]: increased
phosphorylated MDM2 [1]: decrease
phosphorylated levels of FoxO1/3 [1]: decrease
SK cell death inducer activity / viability of SK cells in the screen (primary SK cells): very strong activity
cell death in SK cells (follow-up) (primary SK cells): dose-response killing effect
cell death in SK explants (activated Caspase 3) (Human SK explants; topical application of 1 mM for 48 hrs): significant cell death; also recorded: induction of cell death
tissue destruction in SK explants (H&E staining) (Human SK explants; topically treated with 1 mM for 48 hrs): tissue destruction
effect on normal keratinocytes [2]: remained unaffected even at higher doses
Akt downstream signaling (Akt; [3]): shut down
phosphorylation status of Akt at T308 and 5473 (Akt; [3]): paradoxical hyperphosphorylation
apoptosis as detected by cleaved PARP levels and TUNEL staining (SK cells; 24 hrs (cleaved PARP), 48 hrs (TUNEL)): induction of apoptosis
TUNEL staining (SK cells; SK cells, 48 hrs): positive
shared targets in kinase profiling (human kinome): only members of the Akt and PKC family were shared targets

Clc1ccc(C2(c3ccc(-c4cn[nH]c4)cc3)CCNCC2)cc1 [C9]
SK cell death inducer activity / viability of SK cells in the screen (primary SK cells): did not affect the viability
cell death in SK cells (follow-up) (primary SK cells): did not show any effects

CCn1c(-c2nonc2N)nc2c(C#CC(C)(C)O)ncc(OC[C@H]3CCCNC3)c21 [GSK690693]
shared targets in kinase profiling (human kinome): only members of the Akt and PKC family were shared targets

COc1ccc(C2=N[C@@H](c3ccc(Cl)cc3)[C@@H](c3ccc(Cl)cc3)N2C(=O)N2CCNC(=O)C2)c(OC(C)C)c1 [Nutlin-3]
cell death in SK cells (primary SK cells): induces cells death

Cc1c2ccncc2c(C)c2c1[nH]c1ccccc12 [elipticine, ellipticine]
cell death in SK cells (primary SK cells; within 48 hours): induce cell death
Akt signaling in SK cells (Akt): block Akt signaling

O=c1c(O)c(-c2ccc(O)cc2)oc2cc(O)cc(O)c12 [kaempferol]
cell death in SK cells (primary SK cells; within 48 hours): induce cell death
Akt signaling in SK cells (Akt): block Akt signaling

COc1ccc(C[C@H](N)C(=O)N[C@H]2[C@@H](O)[C@H](n3cnc4c(N(C)C)ncnc43)O[C@@H]2CO)cc1 [pyromycin, puromycin]
cell death in SK cells (primary SK cells): inducer of cell death
